Laboratory results from US7863337B2, “Use of triacontanol in preparation of medicaments for treatment of cancers” (priority 2006, dated 2011).
Values belong to the compound of their own block, whether it stands above or below them.

Assays:
murine hepatoma H22 [1] = assay: Curative effect test against murine hepatoma H22 by gavaging a thixotropic oil suspension of triacontanol; assay type: in vivo, mice
Description: (§1) Experiment method: […] of the tumor models of murine hepatoma H22, intestinal cancer C26 and Lewis lung cancer by hypodermic inoculating in the murine in vivo
(§2) A cancer cell suspension is prepared from the tumor source by homogenate technique, and then is inoculated subcutaneously under the armpit. After 24 hours, medication is administrated according to a predesigned scheme, and finally, an inhibition rate statistic against the tumor is obtained by comparing with a negative control group.

murine hepatoma H22 [2] = assay: Curative effect test against murine hepatoma H22 (inoculated under the armpit) by gavaging a triacontanol oil agent; assay type: in vivo, mice
Description: as §1, §2

[3] = Effect to the thymus index and spleen index of murine by gavaging a triacontanol oil agent; assay type: in vivo; details: tumor-bearing mice
Lewis lung cancer = assay: Curative effect test against murine Lewis lung cancer (hypodermically inoculated) by intravenous administration of a triacontanol emulsion; assay type: in vivo, mice; details: 7 mg/kg/d
Description: as §1, §2

intestinal cancer C26 = assay: Curative effect test against murine intestinal cancer C26 (hypodermically inoculated) by gavaging a 352B oil agent; assay type: in vivo, mice; details: 7 mg/kg/d
Description: as §1, §2

[4] = 100 mg/kg (middle dosage), gavage
[5] = 150 mg/kg (high dosage), gavage
[6] = ipx2, vs negative control group

- Weight (g) After administration (murine hepatoma H22 [2]; 50 mg/kg (low dosage), gavage): 23.51 ± 1.99 g
- Weight (g) After administration (murine hepatoma H22 [2]; [4]): 23.20 ± 2.86 g
- Weight (g) After administration (murine hepatoma H22 [2]; [5]): 23.52 ± 2.36 g
- Spleen index (mg/10 g body weight) ([3]; 50 mg/kg (low dosage), gavage): 67.1 ± 13.7 mg/10 g body weight
- Thymus index (mg/10 g body weight) ([3]; 50 mg/kg (low dosage), gavage): 45 ± 6.72 mg/10 g body weight
- Weight of spleen ([3]; 50 mg/kg (low dosage), gavage): 153.52 ± 35.62 mg
- Weight of thymus ([3]; 50 mg/kg (low dosage), gavage): 102.14 ± 15.90 mg
- Spleen index (mg/10 g body weight) [3, 4]: 62.1 ± 17.5 mg/10 g body weight
- Thymus index (mg/10 g body weight) [3, 4]: 38.7 ± 8.08 mg/10 g body weight
- Weight of spleen [3, 4]: 139.98 ± 41.62 mg
- Weight of thymus [3, 4]: 86.87 ± 16.44 mg
- Spleen index (mg/10 g body weight) [3, 5]: 65.7 ± 12.3 mg/10 g body weight
- Thymus index (mg/10 g body weight) [3, 5]: 37.7 ± 6.73 mg/10 g body weight
- Weight of spleen [3, 5]: 151.26 ± 32.16 mg
- Weight of thymus [3, 5]: 86.86 ± 16.14 mg
SMILES: CCCCCCCCCCCCCCCCCCCCCCCCCCCCCCO [352B, triacontanol]
- antitumor effect (summary in words) (murine hepatoma H22 [1]; summary of the above tests (H22, Lewis lung cancer, C26)): prominent antitumor effect
- Weight of the tumor (murine hepatoma H22 [2]; 50 mg/kg (low dosage), gavage): 0.72 ± 0.38 g
- Inhibition rate (%) (murine hepatoma H22 [2]; 50 mg/kg (low dosage), gavage, compared with the menstruum control group): 48.13%
- Weight of the tumor (murine hepatoma H22 [2]; [4]): 0.57 ± 0.28 g
- Inhibition rate (%) (murine hepatoma H22 [2]; 100 mg/kg (middle dosage), gavage, compared with the menstruum control group): 58.95%
- Weight of the tumor (murine hepatoma H22 [2]; [5]): 0.49 ± 0.25 g
- Inhibition rate (%) (murine hepatoma H22 [2]; 150 mg/kg (high dosage), gavage, compared with the menstruum control group): 64.59%
- effect to the important immune organ (thymus and spleen) ([3]; summary in words): hasn't obvious effect to the important immune organ

SMILES: N.N.[Cl][Pt][Cl] [DDP]
- Weight of the animal (g) at last (murine hepatoma H22 [1]; 7 mg/kg/d, igx2): 21.4/25.4 g
- Weight of the tumor (g) X ± SD (murine hepatoma H22 [1]; 7 mg/kg/d, igx2): 1.269 ± 0.13 g
- Inhibition rate (%) (murine hepatoma H22 [1]; 7 mg/kg/d, igx2, vs negative control group): 91.0%
- Weight of the animal (g) at last (Lewis lung cancer; ipx2): 19.2/20.9 g
- Weight of the tumor (g) X ± SD (Lewis lung cancer; ipx2): 0.278 ± 0.14 g
- Inhibition rate (%) (Lewis lung cancer; [6]): 89.00%
- Weight of the tumor (murine hepatoma H22 [2]; 0.001 mg/kg): 0.31 ± 0.19 g
- Inhibition rate (%) (murine hepatoma H22 [2]; 0.001 mg/kg, compared with the NS control group): 79.76%
- Spleen index (mg/10 g body weight) ([3]; 0.001 mg/kg): 46 ± 8.18 mg/10 g body weight
- Thymus index (mg/10 g body weight) ([3]; 0.001 mg/kg): 30.7 ± 8.06 mg/10 g body weight
- Weight of spleen ([3]; 0.001 mg/kg): 88.90 ± 27.79 mg
- Weight of thymus ([3]; 0.001 mg/kg): 59.61 ± 22.45 mg
- Weight of the animal (g) at last (intestinal cancer C26; ipx2): 19.1/24.1 g
- Weight of the tumor (g) X ± SD (intestinal cancer C26; ipx2): 0.346 ± 0.13 g
- Inhibition rate (%) (intestinal cancer C26; [6]): 86.99%
